Measured values as given in patent US20090023753A1, “1,3-Thiazole-5-Carboxamides Useful as Cancer Chemotherapeutic Agents” (Bayer HealthCare AG, priority 2005, published 2009).

Assays:
[1] = system: P-AKT/PKB in H209 small cell lung carcinoma cells; experiment: P-AKT/PKB Cytoblot Assay with H209 cells (SCF-stimulated); format: cell-based; conditions: Homo sapiens, NCI-H209, 1 hour compound incubation, SCF 25 ng/mL for 5 minutes, p-(S473) AKT
Excerpt: The utility of the compounds of the present invention can be illustrated, for example, by their activity in the P-AKT/PKB Cytoblot Assay described below. The involvement of the P-AKT/PKB[PI3K/AKt] pathway as a target for cancer chemotherapy has been recognized in the art. For example, see F. Chang et al, Involvement of PI3K/Akt pathway in cell cycle progression, apoptosis, and neoplastic transformation: a target for cancer chemotherapy, Leukemia, 2003, 17: p. 590-603; K. A. West et al, Activation of the PI3K/Akt pathway and chemotherapeutic resistance, Drug Resistance Updates, 2002, 5: p. 234-248; and P. Sen et al, Involvement of the Akt/PKB signaling pathway with disease processes, Molecular and Cellular Biochemistry, 2003, 253: p. 241-246.
P-AKT/PKB Cytoblot Assay Protocol with H209 Cells
H209 small cell lung carcinoma cells in log phase were plated at 50,000 cells/well in 96-well poly-lysine coated, clear bottom/black-sided plates (Becton-Dickinson, USA Cat # 354640) in 100 Ill RPMI medium containing 0.1% (w/v) BSA, and incubated overnight at 37° C. in 5% CO2 incubator. The following day, compounds (10 mM stock solutions in DMSO) were added to the plates to generate final concentrations of 0.0, 0.01, 0.03, 0.1, 0.3, 1.0, 3.0 and 10 μM for IC50 determinations and incubated for 1 hour at 37° C. Cells were then left untreated or stimulated with Stem Cell Factor (SCF: Biosource Cat # PHC2116) at a final concentration of 25 ng/mL for 5 minutes at 37° C. in 5% CO2 incubator. The media was then removed using a vacuum manifold and the cells were washed once with Tris Buffered Saline (TBS). Cells were then fixed by adding 200 μl of cold 3.7% (v/v) formaldehyde in TBS to each well for 15 minutes at 4° C. After removal of the formaldehyde, the cells were treated with the addition of 50 μl of methanol (at −20° C.) to each well for 5 minutes. After removal of the methanol, 200 μl of 1% (w/v) BSA in TBS was added to each well to block non-specific antibody binding sites and the plate was incubated at room temperature for 30 minutes.
After removal of the blocking buffer, 50 μl of p-(S473) AKT rabbit polyclonal antibody (Cell Signaling, USA Cat # 9277S) was added at a dilution of 1:250 in 0.1% (w/v) BSA in TBS, and the plate was incubated at room temperature for 1 hour. Plates were then washed 3 times with cold TBS containing 0.05% (v/v) Tween 20 (TBS-T) and 100 μl of Horseradish peroxidase (HRP)-conjugated goat-anti-rabbit antibody (Amersham, USA Cat # NA934V) at a dilution of 1:250 in TBS-T was added and the plate was incubated at room temperature for 1 h. After washing with ice-cold TBS-T four times, 100 μl of Enhanced Chemiluminescence (ECL) reagent (Amersham, USA Cat# RPN2209) was added to each well and mixed on a mini-orbital shaker for 1 min. The plate was then read on a Perkin Elmer Victor 5 Multilabel Counter (#1420-0421).

[2] = system: phospho-ERK in MDA-MB-231 cells; experiment: Phospho-ERK Cytoblot Assay with MDA-MB 231 cells; format: cell-based; conditions: Homo sapiens, 1 hour compound incubation, phospho-p44/42 MAP kinase (Thr202/Tyr204)
Excerpt: The utility of the compounds of the present invention can also be illustrated, for example, by their activity in the phosph-ERK Assay described below. Growth-factor induction of the RAS/MEK/ERK signaling pathway leads to the induction of phosphorylation of a number of proteins including phospho-ERK (See C. J. Marshall, MAP kinase kinase kinase, MAP kinase kinase and MAP kinase, Current Opinions in Genetic Development, 1994, 4: p. 82-89). The importance of this pathway in cancer biology has been recognized in the art. Activation of the RAS signaling pathway is an important mechanism by which cancer develops (R. Herrera, et al, Unraveling the complexities of the Raf/MAP kinase pathway for pharmacological intervention, Trends Mol. Med., 2002, 8: p. S27-31). Mutational activation of RAS or downstream effectors as well as growth factor induction of this pathway leads to increased tumor cell proliferation and survival (A. A. Adjei, Blocking oncogenic RAS signaling for cancer therapy, J. Natl. Cancer Inst., 2001, 93(14): p. 1062-1074; J Schlessinger, Cell signaling by receptor tyrosine kinases, Cell, 2000, 103: p. 211-225). Phospho-ERK Cytoblot Assay Protocol with MDA-MB 231 Cells MDA-MB-231 cells in log phase were plated at 25,000 cells/well in 96-well opaque plates (Falcon, USA Cat # 353296) in 100 μL RPMI medium containing 10% (w/v) FBS, and incubated overnight at 37° C. in 5% CO2 incubator. The following day, the growth medium was removed from the plate by aspiration and replaced with RPMI medium containing 0.1% BSA and example compounds diluted to generate final concentrations of 0.0, 0.001, 0.003, 0.01, 0.03, 0.1, 0.3, 1 and 3 μM. Cells were incubated with compound for 1 hour at 37° C. in a 5% CO2 incubator. The media was then removed from the plate by aspiration and the cells were washed once with 180 μL/well cold Tris Buffered Saline (TBS). After removal of the wash buffer, the cells were fixed by adding 180 μL of cold 3.7% (v/v) formaldehyde in TBS to each well for 1 hour at 4° C. After removal of the formaldehyde, the cells were treated with the addition of 60 μL of −20° C. methanol to each well for 5 minutes at 4° C. The methanol was removed and the cells were washed with 180 μL/well of 5% (w/v) BSA in TBS. To block non-specific antibody binding sites, each well was treated with 180 μL/well 5% BSA (w/v) in TBS for thirty minutes at room temperature. After removal of the blocking buffer, 50 μL of an anti-phospho-p44/42 MAP kinase (Thr202/Tyr204) rabbit polyclonal antibody (Cell Signaling, USA Cat # 9101) was added to each well at a dilution of 1:1000 in 5% (w/v) BSA in TBS, and the plate was incubated at 4° C. overnight. Plates were then washed three times with 300 μL/well TBS at room temperature. The plates were then incubated with 50 μL of Horseradish peroxidase (HRP)-conjugated goat-anti-rabbit antibody (Amersham, USA Cat. # NA934V) at a dilution of 1:1000 in 5% BSA-TBS at room temperature for 1 hr. After washing the plate three times with 300 μL/well TBS, 60 μL of Enhanced Chemiluminescence (ECL) reagent (Amersham, USA Cat# RPN2209) was added to each well and incubated at room temperature for five minutes. The plate was then read on a Perkin Elmer Victor 5 Multilabel Counter (#1420-0421). […] The utility of the compounds of the present invention can also be illustrated, for example, by their activity in the flk-1 (murine VEGFR2) Assay described below. The VEGF-VEGFR2 signaling pathway has been extensively characterized as an important regulator of angiogenesis and tumor angiogeneisis (See G. Yancopoulos et al, Vascular-specific growth factors and blood vessel formation, Nature, 2000, 407: p. 242-248; D. Shweiki et al, Induction of vascular endothelial growth factor expression by hypoxia and by glucose deficiency in multi cell spheroids: Implications for tumor angiogenesis, Proc. Natl. Acad. Sci, 1995, 92: p. 768-772). Inhibition of tumor cell growth by blocking this pathway has been well documented in the art. […]

[3] = biological target: T1, Flk-1 (murine VEGFR-2) kinase domain (Mus musculus, UniProt P35918); experiment: Flk-1 (murine VEGFR-2) Biochemical Assay (TR-FRET); conditions: 10 μM ATP, 7 nM Flk-1 (kinase domain)
T1 construct: 7 nM Flk-1 (kinase domain)
T1 sequence (P35918 832-1160 limits assumed): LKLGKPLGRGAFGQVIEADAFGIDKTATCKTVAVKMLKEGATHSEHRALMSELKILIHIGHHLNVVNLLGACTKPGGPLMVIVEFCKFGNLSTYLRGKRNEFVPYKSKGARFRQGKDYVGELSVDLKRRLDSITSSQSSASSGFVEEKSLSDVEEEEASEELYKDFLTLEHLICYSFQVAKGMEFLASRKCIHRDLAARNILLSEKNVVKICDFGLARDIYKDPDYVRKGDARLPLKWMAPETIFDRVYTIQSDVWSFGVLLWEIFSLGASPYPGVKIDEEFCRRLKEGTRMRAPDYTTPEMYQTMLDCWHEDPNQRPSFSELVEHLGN

Row | SMILES | IC50 [1] | IC50 [2] | IC50 [3]
1 | CC(=O)Nc1cc(CNc2ncsc2C(=O)Nc2ccc3c(c2)OC(F)(F)C(F)(F)O3)ccn1 [Example 11, 4-({[2-(acetylamino)pyridin-4-yl]methyl}amino)-N-(2,2,3,3-tetrafluoro-2,3-dihydro-1,4-benzodioxin-6-yl)-1,3-thiazole-5-carboxamide] | < 500 nM | < 3000 nM | < 500 nM
2 | CC(=O)OCC(=O)Nc1cc(CNc2ncsc2C(=O)Nc2ccc3c(c2)OC(F)(F)C(F)(F)O3)ccn1 [Example 14, 2-oxo-2-[(4-{[(5-{[(2,2,3,3-tetrafluoro-2,3-dihydro-1,4-benzodioxin-6-yl)amino]carbonyl}-1,3-thiazol-4-yl)amino]methyl}pyridin-2-yl)amino]ethyl acetate] | < 500 nM | < 3000 nM | < 500 nM
3 | COCC(=O)Nc1cc(CNc2ncsc2C(=O)Nc2ccc3c(c2)OC(F)(F)O3)ccn1 [Example 7, N-(2,2-difluoro-1,3-benzodioxol-5-yl)-4-[([2-[(methoxyacetyl)amino]pyridin-4-yl]methyl)amino]-1,3-thiazole-5-carboxamide] | < 500 nM | < 3000 nM | < 500 nM
4 | COCC(=O)Nc1cc(CNc2ncsc2C(=O)Nc2ccc3c(c2)OC(F)(F)C(F)(F)O3)ccn1 [Example 8, 4-[({2-[(methoxyacetyl)amino]pyridin-4-yl}methyl)amino]-N-(2,2,3,3-tetrafluoro-2,3-dihydro-1,4-benzodioxin-6-yl)-1,3-thiazole-5-carboxamide] | < 500 nM | < 3000 nM | < 500 nM
5 | CNC(=O)c1cc(CNc2ncsc2C(=O)Nc2ccc3c(c2)OC(F)(F)C(F)(F)O3)ccn1 [Example 2, N-methyl-4-{[(5-{[(2,2,3,3-tetrafluoro-2,3-dihydro-1,4-benzodioxin-6-yl)amino]carbonyl}-1,3-thiazol-4-yl)amino]methyl}pyridine-2-carboxamide] | < 500 nM | < 3000 nM | < 500 nM
6 | COCCOCC(=O)Nc1cc(CNc2ncsc2C(=O)Nc2ccc3c(c2)OC(F)(F)C(F)(F)O3)ccn1 [Example 9, 4-{[(2-{[(2-methoxyethoxy)acetyl]amino}pyridin-4-yl)methyl]amino}-N-(2,2,3,3-tetrafluoro-2,3-dihydro-1,4-benzodioxin-6-yl)-1,3-thiazole-5-carboxamide] | < 500 nM | < 3000 nM | < 500 nM
